Measurements taken from a melting point compilation (Tetko et al.; mined from patent text by program, amines drawn as free bases though some values may be those of a salt).

Row | Compound | melting point [°C]
1 | O=P(Oc1ccccc1)(Oc1ccc(-c2cssc2=S)cc1)Oc1ccc(-c2cssc2=S)cc1 | 75 to 80
2 | CN1CCc2c(-c3ccc([N+](=O)[O-])cc3)cc3c(c2C1)NC(=O)C3=O | > 300
3 | CC1NC(=O)COC1=O (stereo not drawn) | 139 to 141
4 | Cn1cc(-c2cccc(N3Cc4cc(C(C)(C)C)ccc4C3=O)c2CO)cc(Nc2ccncn2)c1=O | 216 to 218
5 | CCCCOc1cc(C(=O)O)cc(NC=O)c1C(=O)c1ccccc1 | 180 to 183
6 | Nc1ccccc1Nc1ccc(I)cc1 | 122 to 123
7 | CCCCc1ccc(C#Cc2ccc(Br)cc2)cc1 | 75.6 to 76.1
8 | CCOC(=O)CN(c1cccc2cc(-c3nccs3)[nH]c12)S(=O)(=O)c1cccs1 | 135 to 137
9 | CC(C)C(=O)c1cn(Cc2c(F)cccc2F)c2sc(-c3ccccc3)c(CBr)c2c1=O | 189 to 192
10 | c1ccc(CN2C[C@H]3CCCC[C@@]3(Cc3ccccc3)C2)cc1 (relative stereo) | 156 to 158
11 | CC1CN(N)C(=O)N1C (stereo not drawn) | 162 to 164
12 | CCC(CC)(CCC#N)C(NC(=O)c1ccc(Cl)cc1)Nc1c(Nc2cccnc2)c(=O)c1=O (stereo not drawn) | 242 to 243
13 | O=C(NCc1ccccn1)Nc1cc(-n2c(=O)n(-c3ccccc3)c3ccccc32)ccn1 | 231 to 232
14 | CC(=O)OC1CSC(Br)C(OC(C)=O)C1OC(C)=O (stereo not drawn) | 175
15 | CC(C)NCC(O)COc1ccc(NC(=O)C(C)C)cc1C#N (stereo not drawn) | 126 to 127
16 | OC(CNC1=NCCCN1)c1ccccc1 (stereo not drawn) | 188
17 | CC(C)(Cl)C(CO)=NO | 114 to 115
18 | COc1ccc2c(c1)C(=O)c1c-2c(N2CCN(C(=O)CCNCCN(C)C)CC2)nc2ccccc12 | 161 to 162
19 | N#CCCNC(=O)C1=CC(CF)(CF)Oc2ccc(C(F)(F)C(F)(F)C(F)(F)C(F)(F)F)cc21 | 85 to 86
20 | Nc1nc(O)c2cc(CN(Cc3c[nH]c(=O)[nH]c3=O)c3ccc(C(=O)N[C@@H](CCC(=O)O)C(=O)O)cc3)ccc2n1 | 250 to 255
21 | COc1ccc(C(=C/C=C/C(=O)Nc2ccc(-c3cccnc3)cc2)c2ccc(OC)cc2)cc1 | 210 to 212
22 | COc1cc(C)nc(NC(=O)NS(=O)(=O)c2ccccc2C(=O)Nc2nncs2)n1 | 172 to 173

Row | Compound | melting point [°C]
23 | CC(=NNC(=O)C1CCCCC1)c1ccncc1 | 195
24 | CC(C)(C)NC(=O)C1CCC2C3CNC4=CC(=O)CCC4(C)C3CCC12C (stereo not drawn) | 186 to 189
25 | CNC(=O)c1cccc(NC(=O)Cc2cccc3sccc23)c1 | 192
26 | Cn1cnc(COc2ccc(-c3cc(-c4c[nH]nc4-c4ccccn4)ccn3)cc2)c1 | 104
27 | FC(F)(F)Oc1ccc(Nc2cc(-c3ccccc3)nc(-c3ccccc3)n2)cc1 | 220 to 222
28 | CS(=O)(=O)c1ccc(-c2cc(CO[N+](=O)[O-])nn2C2CCCCCC2)cc1 | 119 to 120
29 | ClCc1cn2cc(Cl)ccc2n1 | 123 to 124
30 | CCOC(=O)c1ncc2[nH]c3cccc(Oc4ccccc4)c3c2c1COC | 174 to 176
31 | COC1C=C(C)C(=O)CC(C)(C)C1OC(=O)c1ccccc1C(=O)O (stereo not drawn) | 158
32 | CC(=O)c1ccc(S(=O)(=O)NCc2cccnc2)cc1 | 143 to 144
33 | CC(C)n1nc(-c2sc(NC(=O)c3ccc(C(F)(F)F)cc3)nc2-c2ccccc2)ccc1=O | 162 to 167
34 | Cc1c(-c2ccccc2)oc2c(CS(=O)CCCl)cccc2c1=O (stereo not drawn) | 142 to 145
35 | CCCCCCCCCC(N)CCCCCCCCC(N)CCCCCCCCC (stereo not drawn) | 33 to 37
36 | O=C(CNC(=O)c1ccc([N+](=O)[O-])cc1F)OCc1ccccc1 | 104 to 106
37 | COc1ccc(CC(=O)O)c(C(=O)c2ccccc2)c1 | 158 to 159
38 | c1ccc(C(CCOc2ccc(-c3nnn[nH]3)cc2)(c2ccccc2)c2ccccc2)cc1 | 232 to 233
39 | O=C1C(c2ccccc2)=C(c2ccccc2)C(=O)N1Cc1ccc(F)cc1 | 124 to 125
40 | CC(C)OC(=O)Nc1ccc(NC=O)c([N+](=O)[O-])c1 | 168 to 170
41 | O=C(O)CS(=O)(=O)CCCCCCn1nc(-c2ccccc2)c(-c2ccccc2)c1-c1ccccc1 | 154 to 155
42 | O=C(c1cccc(O)c1)c1sc2cc(O)ccc2c1-c1ccccc1 | 202
43 | CC(=O)N(CC(=O)O)c1ccc(C)cc1C | 165 to 172
44 | COC(=O)C1=C(C)NC(C)=C(C(=O)OC)C1c1cc([N+](=O)[O-])ccc1OCCCCNCC(O)COc1ccccc1 (stereo not drawn) | 131 to 133

Row | Compound | melting point [°C]
45 | Cc1cc(NC2=NCCN2)n(C(C)C)n1 | 173 to 175
46 | CCOC(=O)Cc1ccc(C(=O)c2ccc([N+](=O)[O-])cc2)n1C | 103 to 106
47 | Cc1ccc([N+](=O)[O-])c(OC2CCOC2=O)c1 (stereo not drawn) | 68 to 70
48 | Cc1ccc(S(=O)(=O)N2CCCC2c2ccc(C(F)(F)F)cc2)cc1 (racemic) | 99
49 | CN1[C@@H](c2ccc(O)cc2)c2ccccc2S1(=O)=O | 178 to 180
50 | Cc1nc(N2CCN(Cc3ccccc3C(F)(F)F)C2=O)sc1C(=O)NCc1ccccc1 | 138 to 140
51 | COC(C)c1ccc(-c2ccc(O)cc2)cc1 (single isomer, unassigned; (+)) | 174 to 175
52 | COC(=O)CCCn1sc(Cl)cc1=O | 54 to 56
53 | CON=C(C(=O)OC(C)C)c1ccccc1CBr | 76 to 77
54 | COc1ccc(Cl)ccc1=O | 124 to 126
55 | CN1CCN(S(=O)(=O)c2ccc([N+](=O)[O-])cc2[N+](=O)[O-])CC1 | 164 to 165
56 | CCC(C)C(NC(=O)OC)C(=O)NC(Cc1ccccc1)C(O)CN(Cc1ccc(-c2cncs2)cc1)NC(=O)OC(C)(C)C (stereo not drawn) | 163 to 166
57 | CNC(=O)On1cc(Cl)cn1 | 125
58 | O=C1c2ccccc2C(=O)N1CCCN1c2ccccc2C(c2ccccc2)=Nc2cccnc21 | 170 to 172
59 | COC(=O)c1c(Cl)c(Cl)c(Cl)c(Cl)c1C#N | 82 to 83
60 | CCOC(=O)c1cc2c(OC)ccnc2[nH]1 | 195 to 197
61 | C=CCc1ccccc1OCC(O)CNCCc1ccc(NC2CCN(S(=O)(=O)c3ccc(NC(=O)NCCCCCC)cc3)CC2)cc1 (stereo not drawn) | 68 to 70
62 | CC(CS(=O)(=O)c1ccccc1)C1CC=C2C3=C(CCC21C)C1(C)CCC(OC(=O)c2ccccc2)C(C)(C)C1CC3 (stereo not drawn) | 175 to 188
63 | O=C(NC1CN2CCC1CC2)c1cccc2nc(-c3ccc(F)cc3)oc12 (stereo not drawn) | 185 to 187
64 | COC(=O)/C=C/c1ccc(NC(C)=O)nc1 | 172 to 200

The next lines start with the values.

Row | melting point [°C] | Compound
65 | 155 to 157 | CCCn1c(COC)nc2c(N)nc3ccc(OCCC4CCCN4C)cc3c21 (stereo not drawn)
66 | 175 to 177 | O=C(O)c1cnn2c1NCC=C2c1cccc(C(F)(F)F)c1
67 | 215 to 217 | COC(=O)[C@@H]1COC(c2ncn3c2CN(C)C(=O)c2sccc2-3)=N1
68 | 106 to 107 | CC(C)(C)OC(=O)NCCOc1noc2ccc(Cl)cc12
69 | 242 to 244 | CCSc1nc2c(cc1F)c(=O)c(C(=O)O)cn2C1CC1
70 | 233 to 235 | CCCCCCCc1ccc(-c2nc(C)c(C(C)=NNC(=N)N)s2)cc1
71 | 222 to 224 | NS(=O)(=O)c1cc(C(=O)O)cc(SCc2ccsc2)c1Oc1ccccc1
72 | 209 to 211 | CCN[C@H]1CCN(c2c(-c3ccccc3)c(C)c(C#N)c3nc(C4CC4)oc23)C1
73 | 143 to 145 | O=C1c2ccccc2C(=O)N1CCN1CCC(c2noc3cc(F)ccc23)CC1
74 | 155 to 156 | NS(=O)(=O)c1cc2cc(N3CCOCC3)ccc2s1
75 | 272 to 275 | CCCc1nn(C)c2c(=O)[nH]c(Cc3ccc(NC(C)=O)cc3)nc12
76 | 158 | CC(=O)OC1CSC(Oc2ccc3sc(C)nc3c2)C(OC(C)=O)C1OC(C)=O (stereo not drawn)
77 | 150 to 156 | Nc1ccc2c(c1)Sc1ccccc1N2
78 | 198 to 199 | CCOc1nc2cccc(C(=O)OC)c2n1Cc1ccc(-c2ccccc2C(N)=O)cc1
79 | 136 to 140 | CSc1c(C(C)C(=O)O)n(Cc2ccc(Cl)cc2)c2ccc(F)cc12 (stereo not drawn)
80 | 104 to 106 | COC(=O)C(C)(C)OCC#Cc1cc(C(F)(F)F)ccc1NS(=O)(=O)c1ccc2nc(NC(C)=O)sc2c1
81 | 200 to 201 | CNCc1cnc(Nc2n[nH]c3ccc(-c4ncccc4Cl)cc23)s1

Row | melting point [°C] | Compound
82 | 64 | COC(=O)C(C)Oc1ccc(COc2ccc(Cl)cc2Cl)cc1 (stereo not drawn)
83 | 60 to 65 | O=C(OCC1CO1)c1cccc(C(=O)OCC2CO2)c1 (stereo not drawn)
84 | 144 to 156 | CC(=Nc1ccc(O)cc1C)c1ccccc1O
85 | 183 to 185 | Cn1cccc1-c1nc2cc(N)ccc2o1
86 | 327 to 329 | COc1ccc(C2C3=C(COC3=O)Nc3ccc4ncsc4c32)cc1O (stereo not drawn)
87 | 115 to 117 | O=C(O)CC1CCOc2ccc(Cl)cc21 (stereo not drawn)
88 | 109 | CCOC(=O)c1c(Cl)c2cccnc2n(Cc2ccccc2)c1=O
89 | 165 | O[C@@H]1[C@H](O)[C@H](O)CO[C@H]1n1c(Br)nc2c(F)c(Cl)c(Cl)cc21
90 | 121 to 122 | CC(=O)NCCC1CCc2ccn3ncc(C)c3c21 (stereo not drawn)
91 | 233 to 235 | CCn1ncc2c(NC)c3c(nc21)C(=NC)c1ccccc1CC3
92 | 203 to 206 | Cn1c(C(F)(F)F)cc(=O)n(-c2ccc3snc(C4OCC5(CO4)CO5)c3c2)c1=O (stereo not drawn)
93 | > 250 | O=C1CCCC2=C1C(c1ccc(F)c(C(F)(F)F)c1)C1=C(CCS1)N2 (single isomer, unassigned; (+))
94 | 213 to 214 | O=C(Nc1cc(F)ccc1F)c1cc(-c2ccc(F)cc2F)ccc1O
95 | 81 | CCCc1c(OCCCOc2cc(N)c(Cl)cc2C)ccc(C(C)=O)c1O
96 | 168 to 170 | COc1ccc(-c2c(C(N)=O)c3n(c2Cl)CCN(C(=O)NC(C)(C)C)C3)cc1
97 | 162 | CC(C)N(C1CCCCC1)S(=O)(=O)N[C@@H](Cc1ccc(Nc2nccc3cnccc23)cc1)C(=O)O
98 | 198 | COc1nc2cc(C)c(Cl)c(NS(C)(=O)=O)c2nc1OC
